# In patent US7189851B2, “Condensed heterocyclic compounds as calcitonin agonists” (SmithKline Beecham Corporation, priority 2002, dated 2007):
# Target: T1, human calcitonin-2 receptor (hCT2R) (Homo sapiens, UniProt P30988)
# T1 construct: expressed in transfected cells; host or cells: Chinese hamster ovary (CHO) cells co-transfected with a 6CRE-luciferase reporter; receptor cDNA cloned from the MCF7 cell line
# T1 sequence (P30988 25-474): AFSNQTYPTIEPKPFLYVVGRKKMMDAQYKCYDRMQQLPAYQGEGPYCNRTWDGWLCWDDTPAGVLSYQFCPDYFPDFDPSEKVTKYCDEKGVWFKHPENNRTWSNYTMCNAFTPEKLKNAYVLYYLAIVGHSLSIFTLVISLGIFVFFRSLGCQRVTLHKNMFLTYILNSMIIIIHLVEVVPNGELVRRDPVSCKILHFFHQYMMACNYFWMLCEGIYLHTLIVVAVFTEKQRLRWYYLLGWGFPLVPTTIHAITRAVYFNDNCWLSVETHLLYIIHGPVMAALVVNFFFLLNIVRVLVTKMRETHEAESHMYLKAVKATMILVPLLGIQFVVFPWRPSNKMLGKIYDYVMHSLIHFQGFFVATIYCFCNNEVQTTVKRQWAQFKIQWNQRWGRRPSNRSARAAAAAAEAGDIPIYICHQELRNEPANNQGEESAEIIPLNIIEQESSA
# Test: HCT2R CRE-luc reporter assay
# Type: cell-based
# Conditions: agonist activity; CHO-6CRE-luciferase cells co-transfected with hCT2R
# Experimental: The compounds of the present invention elicit important and measurable pharmacological responses. As is to be expected, the efficacy of any compound will vary depending upon the particular assay and the particular compound tested.
# All recombinant cell line human calcitonin receptor assays were carried out with the human receptor corresponding to GeneBank Accession Number X69920, [See: Molecular Pharmacology 46 (2):246–255, 1994, Cloning and characterization of an abundant subtype of the human calcitonin receptor] cloned from the MCF7 cell line (American Type Tissue Collection, Manassas, Va., USA, Catalog # HTB-22). Human calcitonin receptor (hCT2R) was cloned as a HindIII fragment into plasmid BS SKII. Chinese hamster ovary cells were co-transfected with a 6CRE-luciferase reporter system and hCTR2. HEK cells were transfected with hCTR2.
# CHO-6CRE-luciferase cells with or without co-expressed hCTR2 were grown in suspension in commercially available cell culture medium supplemented with 2 mM L-glutamine and 5% fetal bovine serum (FBS). Sixteen hours before each assay, cells were collected and resuspended at 1,000,000 cells/ml in media without FBS. Cells were cultured in spinner flasks at 37° C. in an atmosphere of 5% CO2. At the time of the assay, cells were pelleted by centrifugation and resuspended in media without FBS at a concentration of 250,000 cells/ml. The cell suspension was pipetted into black 96-well microtiter plates (25,000 cells/well) containing test compounds. After a four-hour incubation at 37° C., media was aspirated, followed by addition of 50 microliters of LucLite and PBS (1:1) containing 1 mM CaCl2 and 1 mM MgCl2. The plates were sealed and incubated for 20 minutes in the dark. Luminescent responses were measured using a Packard TopCount.
# Structure activity studies were performed on CHO-6CRE-luciferase cells with or without co-transfected hCT2R. Forty-eight hours before each assay, cells were removed with trypsin and plated in 96-well microtiter plates at a concentration of 25–100,000 cells/well. Sixteen hours before each assay, FBS-containing media was removed and replaced with media without FBS. Compounds were added and incubated for four hours at 37° C. After incubation, media was aspirated and 50 microliters of LucLite in PBS (1:1) containing 1 mM CaCl2 and 1 mM MgCl2 were added to each well. Plates were sealed and incubated for 20 minutes in the dark before quantification of luminescence on a Packard TopCount.
# Concentration-response curves were calculated and potencies were reported as the concentration of compounds producing half-maximal responses (EC50) or the negative log of the concentration of compounds producing half-maximal responses (pEC50).
row,EC50 [nM],Compound
1,100 to 1000,"O=C(NCc1ccco1)c1ccc(-c2c(NC(=O)C3CCCC3)c(CCc3ccc(C(F)(F)F)cc3)nc3c2C(=O)N2CCC[C@@H]32)cc1 [Example 24, 4-((9aS)-3-[(Cyclopentylcarbonyl)amino]-5-oxo-2-{2-[4-(trifluoromethyl)phenyl]ethyl}-7,8,9,9a-tetrahydro-5H-pyrido[2,3-a]pyrrolizin-4-yl)-N-(2-furylmethyl)benzamide]"
2,100 to 1000,"O=C(NCc1ccco1)c1ccc(-c2c(NC(=O)C3CC3)c(CCc3ccc(C(F)(F)F)cc3)nc3c2C(=O)N2CCC[C@@H]32)cc1 [Example 26, 4-((9aS)-3-[(Cyclopropylcarbonyl)amino]-5-oxo-2-{2-[4-(trifluoromethyl)phenyl]ethyl}-7,8,9,9a-tetrahydro-5H-pyrido[2,3-α]pyrrolizin-4-yl)-N-(2-furylmethyl)benzamide]"
3,10 to 100,"CCOC(=O)c1c(CCc2ccc(F)cc2)nc2c(c1-c1ccc(C(=O)N[C@@H](C)c3ccncc3)c(F)c1)C(=O)N1CCC[C@@H]21 [Example 52, Ethyl (9aS)-2-[2-(4-fluorophenyl)ethyl]-4-[3-fluoro-4-({[(1S)-1-(4-pyridinyl)ethyl]amino}carbonyl)phenyl]-5-oxo-7,8,9,9a-tetrahydro-5H-pyrido[2,3-α]pyrrolizine-3-carboxylate]"
4,≥ 1000,"CCOC(=O)c1c(Cc2ccc(F)cc2)nc2c(c1-c1cc(C(=O)NCCc3cccs3)cc(C(F)(F)F)c1)C(=O)N1CCC[C@@H]21 [Example 54, Ethyl (9aS)-2-(4-fluorobenzyl)-5-oxo-4-[3-({[2-(2-thienyl)ethyl]amino}carbonyl)-5-(trifluoromethyl)phenyl]-7,8,9,9a-tetrahydro-5H-pyrido[2,3-α]pyrrolizine-3-carboxylate]"
5,100 to 1000,"Ethyl (9aS)-4-(4-{[(2-furylmethyl)amino]carbonyl}phenyl)-5-oxo-2-{2-[4-(trifluoromethyl)phenyl]ethyl}-7,8,9,9a-tetrahydro-5H-pyrido[2,3-α]pyrrolizine-3-carboxylate-N-oxide [Example 38]"
6,10 to 100,"CCOC(=O)c1c(CCc2ccc(C(F)(F)F)cc2)nc2c(c1-c1ccc(CNC(=O)c3cccnc3)s1)C(=O)N1CCC[C@@H]21 [Example 47, Ethyl (9aS)-5-oxo-4-(5-{[(3-pyridinylcarbonyl)amino]methyl}-2-thienyl)-2-{2-[4-(trifluoromethyl)phenyl]ethyl}-7,8,9,9a-tetrahydro-5H-pyrido[2,3-α]pyrrolizine-3-carboxylate]"
7,10 to 100,"CCOC(=O)c1c(CCC(F)(F)F)nc2c(c1-c1ccc(C(=O)N[C@@H]3CCc4ccccc43)cc1)C(=O)N1CCC[C@@H]21 [Example 44, Ethyl (9aS)-4-(4-{[(1R)-2,3-dihydro-1H-inden-1-ylamino]carbonyl}phenyl)-5-oxo-2-(3,3,3-trifluoropropyl)-7,8,9,9a-tetrahydro-5H-pyrido[2,3-α]pyrrolizine-3-carboxylate]"
8,100 to 1000,"O=C(NCc1ccco1)c1ccc(-c2cc(CCc3ccc(C(F)(F)F)cc3)nc3c2C(=O)N2CCC[C@@H]32)cc1 [Example 14, 4-((9aS)-5-oxo-2-{2-[4-(trifluromethyl)phenyl]ethyl}-7,8,9,9a-tetrahydro-5H-pyrido[2,3-a]pyrrolizin-4-yl)-N-(2-furylmethyl)benzamide]"
9,10 to 100,"CCOC(=O)c1c(CCc2ccc(F)cc2)nc2c(c1-c1ccc(C(=O)N[C@@H]3CCc4ccccc43)cc1[N+](=O)[O-])C(=O)N1CCC[C@@H]21 [Example 53, Ethyl (9aS)-4-(4-{[(1R)-2,3-dihydro-1H-inden-1-ylamino]carbonyl}-2-nitrophenyl)-2-[2-(4-fluorophenyl)ethyl]-5-oxo-7,8,9,9a-tetrahydro-5H-pyrido[2,3-α]pyrrolizine-3-carboxylate]"

row,Compound,EC50 [nM]
1,"Ethyl (9αS)-4-{4-[(benzylamino)carbonyl]phenyl}-5-oxo-2-{2-[4-(trifluoro-methyl)phenyl]ethyl}-9,9a-dihydro-5H-[1,3]oxazolo[3′,4′:1,2]pyrrolo[3,4-b]pyridine-3-carboxylate [Example 36]",10 to 100
